Laboratory results taken from ChEMBL document CHEMBL5653615 (J Biol Chem, 2013).

Assays:
[1] = target: Vascular endothelial growth factor receptor 2 (Homo sapiens) (UniProt P35968); assay: Inhibition of human KDR at 18.6 nM by HotSpot assay relative to control
[2] = target: Ephrin type-A receptor 7 (Homo sapiens) (UniProt Q15375); assay: Inhibition of human EPHA7 at 18.6 nM by HotSpot assay relative to control
[3] = target: T1, Mitogen-activated protein kinase kinase kinase 5 (Homo sapiens) (UniProt Q99683); assay: Inhibition of human ASK1 at 18.6 nM by HotSpot assay relative to control
T1 sequence (whole entry): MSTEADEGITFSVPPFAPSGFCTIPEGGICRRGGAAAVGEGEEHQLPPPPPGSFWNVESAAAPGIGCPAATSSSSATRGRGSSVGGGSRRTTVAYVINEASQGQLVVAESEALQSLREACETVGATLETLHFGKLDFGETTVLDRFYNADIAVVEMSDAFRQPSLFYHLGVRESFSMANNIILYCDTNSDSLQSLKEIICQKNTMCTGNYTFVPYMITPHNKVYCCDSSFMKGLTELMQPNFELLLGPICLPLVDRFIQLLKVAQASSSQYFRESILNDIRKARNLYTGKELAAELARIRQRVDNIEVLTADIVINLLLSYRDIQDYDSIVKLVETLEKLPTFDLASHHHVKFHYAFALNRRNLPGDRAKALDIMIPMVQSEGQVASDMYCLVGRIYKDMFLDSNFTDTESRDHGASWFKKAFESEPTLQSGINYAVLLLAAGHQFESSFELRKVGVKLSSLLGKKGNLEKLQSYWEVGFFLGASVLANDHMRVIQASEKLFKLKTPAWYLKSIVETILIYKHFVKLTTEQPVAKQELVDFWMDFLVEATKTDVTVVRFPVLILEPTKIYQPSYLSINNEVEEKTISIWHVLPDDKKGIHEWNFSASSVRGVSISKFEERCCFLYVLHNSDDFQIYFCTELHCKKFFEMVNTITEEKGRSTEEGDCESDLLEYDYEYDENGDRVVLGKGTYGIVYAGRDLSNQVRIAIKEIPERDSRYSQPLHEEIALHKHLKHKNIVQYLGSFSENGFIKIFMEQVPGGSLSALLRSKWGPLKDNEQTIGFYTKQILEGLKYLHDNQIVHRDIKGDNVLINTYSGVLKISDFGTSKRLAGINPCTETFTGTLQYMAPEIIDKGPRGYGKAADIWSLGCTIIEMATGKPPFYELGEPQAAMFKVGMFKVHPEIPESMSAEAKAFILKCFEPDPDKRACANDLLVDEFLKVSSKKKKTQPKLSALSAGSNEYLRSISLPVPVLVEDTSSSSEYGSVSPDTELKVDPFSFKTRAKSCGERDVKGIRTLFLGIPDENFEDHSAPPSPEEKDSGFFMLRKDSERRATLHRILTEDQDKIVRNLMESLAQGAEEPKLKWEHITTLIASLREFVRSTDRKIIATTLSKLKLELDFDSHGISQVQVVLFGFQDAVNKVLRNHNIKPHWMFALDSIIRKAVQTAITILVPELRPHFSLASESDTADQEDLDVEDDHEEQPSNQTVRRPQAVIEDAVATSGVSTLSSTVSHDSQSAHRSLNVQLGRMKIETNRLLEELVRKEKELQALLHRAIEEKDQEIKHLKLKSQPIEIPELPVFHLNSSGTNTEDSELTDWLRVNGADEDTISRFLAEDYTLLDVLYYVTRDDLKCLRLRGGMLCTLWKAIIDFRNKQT

[4] = target: Serine/threonine-protein kinase PLK3 (Homo sapiens) (UniProt Q9H4B4); assay: Inhibition of human PLK3 at 18.6 nM by HotSpot assay relative to control
[5] = target: MAP kinase-interacting serine/threonine-protein kinase 2 (Homo sapiens) (UniProt Q9HBH9); assay: Inhibition of human MNK2 at 18.6 nM by HotSpot assay relative to control
[6] = target: Mitogen-activated protein kinase kinase kinase 9 (Homo sapiens) (UniProt P80192); assay: Inhibition of human MAP3K9 at 18.6 nM by HotSpot assay relative to control
[7] = target: Calcium/calmodulin-dependent protein kinase type 1B (Homo sapiens) (UniProt Q6P2M8); assay: Inhibition of human CAMK1b at 18.6 nM by HotSpot assay relative to control
[8] = target: T2, Serine/threonine-protein kinase STK11 (Homo sapiens) (UniProt Q15831); assay: Inhibition of human LKB1 at 18.6 nM by HotSpot assay relative to control
T2 sequence (whole entry): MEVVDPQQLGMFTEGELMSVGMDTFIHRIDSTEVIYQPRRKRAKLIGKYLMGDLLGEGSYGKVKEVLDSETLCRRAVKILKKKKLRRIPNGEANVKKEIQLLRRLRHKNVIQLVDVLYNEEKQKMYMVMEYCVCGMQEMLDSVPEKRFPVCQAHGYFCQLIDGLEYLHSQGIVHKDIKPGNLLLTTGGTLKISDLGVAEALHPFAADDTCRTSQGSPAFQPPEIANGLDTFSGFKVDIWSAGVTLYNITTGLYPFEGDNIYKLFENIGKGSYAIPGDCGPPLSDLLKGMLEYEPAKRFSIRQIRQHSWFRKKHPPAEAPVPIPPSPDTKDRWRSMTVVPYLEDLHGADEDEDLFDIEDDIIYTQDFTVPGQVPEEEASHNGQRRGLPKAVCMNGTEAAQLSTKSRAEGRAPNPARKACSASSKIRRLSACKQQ

[9] = target: Leukocyte tyrosine kinase receptor (Homo sapiens) (UniProt P29376); assay: Inhibition of human LTK at 18.6 nM by HotSpot assay relative to control
[10] = target: T3, Testis-specific serine/threonine-protein kinase 1 (Homo sapiens) (UniProt Q9BXA7); assay: Inhibition of human TSSK1 at 1.82 nM by HotSpot assay relative to control
T3 sequence (whole entry): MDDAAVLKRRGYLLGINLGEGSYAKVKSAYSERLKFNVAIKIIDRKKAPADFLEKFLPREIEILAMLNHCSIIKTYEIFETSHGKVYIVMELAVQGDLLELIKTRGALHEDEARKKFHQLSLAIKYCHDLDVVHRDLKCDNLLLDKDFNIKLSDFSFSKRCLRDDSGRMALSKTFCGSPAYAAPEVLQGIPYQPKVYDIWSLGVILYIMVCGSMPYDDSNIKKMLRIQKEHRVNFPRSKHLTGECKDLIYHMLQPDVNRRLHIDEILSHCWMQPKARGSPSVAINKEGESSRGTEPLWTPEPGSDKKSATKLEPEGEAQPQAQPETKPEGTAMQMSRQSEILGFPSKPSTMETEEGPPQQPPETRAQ

[11] = target: Calcium/calmodulin-dependent protein kinase type II subunit beta (Homo sapiens) (UniProt Q13554); assay: Inhibition of human CAMK2b at 1.82 nM by HotSpot assay relative to control
[12] = target: RAF proto-oncogene serine/threonine-protein kinase (Homo sapiens) (UniProt P04049); assay: Inhibition of human RAF1 at 1.82 nM by HotSpot assay relative to control
[13] = target: PAS domain-containing serine/threonine-protein kinase (Homo sapiens) (UniProt Q96RG2); assay: Inhibition of human PASK at 1.82 nM by HotSpot assay relative to control

Sequence of RAF proto-oncogene serine/threonine-protein kinase (Homo sapiens) (P04049 whole entry, the tested form may be a part): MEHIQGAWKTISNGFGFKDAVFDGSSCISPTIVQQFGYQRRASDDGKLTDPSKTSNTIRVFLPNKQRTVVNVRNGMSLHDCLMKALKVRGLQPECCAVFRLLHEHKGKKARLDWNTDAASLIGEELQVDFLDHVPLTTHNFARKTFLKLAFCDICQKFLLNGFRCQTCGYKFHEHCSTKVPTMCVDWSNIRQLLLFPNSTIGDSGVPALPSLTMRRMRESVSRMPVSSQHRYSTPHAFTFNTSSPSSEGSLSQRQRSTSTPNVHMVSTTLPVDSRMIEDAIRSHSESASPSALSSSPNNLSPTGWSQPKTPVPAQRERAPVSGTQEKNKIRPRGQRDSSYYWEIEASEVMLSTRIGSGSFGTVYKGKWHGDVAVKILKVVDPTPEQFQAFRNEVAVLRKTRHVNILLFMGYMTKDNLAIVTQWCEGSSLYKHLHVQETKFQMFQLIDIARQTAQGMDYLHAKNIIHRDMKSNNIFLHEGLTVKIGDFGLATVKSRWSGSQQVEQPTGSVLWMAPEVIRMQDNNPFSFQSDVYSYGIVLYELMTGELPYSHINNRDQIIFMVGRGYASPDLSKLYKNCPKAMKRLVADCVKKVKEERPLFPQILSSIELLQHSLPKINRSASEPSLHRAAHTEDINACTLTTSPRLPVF
Sequence of MAP kinase-interacting serine/threonine-protein kinase 2 (Homo sapiens) (Q9HBH9 whole entry, looked up): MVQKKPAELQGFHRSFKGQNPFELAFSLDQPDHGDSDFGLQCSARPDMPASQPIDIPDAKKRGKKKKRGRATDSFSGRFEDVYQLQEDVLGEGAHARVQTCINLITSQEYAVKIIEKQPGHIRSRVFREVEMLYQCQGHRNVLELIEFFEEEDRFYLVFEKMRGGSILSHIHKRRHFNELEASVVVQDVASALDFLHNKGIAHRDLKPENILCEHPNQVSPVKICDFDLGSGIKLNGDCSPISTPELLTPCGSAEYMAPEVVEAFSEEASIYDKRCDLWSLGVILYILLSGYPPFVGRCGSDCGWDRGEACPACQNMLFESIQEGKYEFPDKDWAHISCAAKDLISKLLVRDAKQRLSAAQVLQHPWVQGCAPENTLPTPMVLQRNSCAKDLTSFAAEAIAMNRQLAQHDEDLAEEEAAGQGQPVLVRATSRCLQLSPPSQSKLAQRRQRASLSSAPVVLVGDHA
Sequence of Mitogen-activated protein kinase kinase kinase 9 (Homo sapiens) (P80192 whole entry, looked up): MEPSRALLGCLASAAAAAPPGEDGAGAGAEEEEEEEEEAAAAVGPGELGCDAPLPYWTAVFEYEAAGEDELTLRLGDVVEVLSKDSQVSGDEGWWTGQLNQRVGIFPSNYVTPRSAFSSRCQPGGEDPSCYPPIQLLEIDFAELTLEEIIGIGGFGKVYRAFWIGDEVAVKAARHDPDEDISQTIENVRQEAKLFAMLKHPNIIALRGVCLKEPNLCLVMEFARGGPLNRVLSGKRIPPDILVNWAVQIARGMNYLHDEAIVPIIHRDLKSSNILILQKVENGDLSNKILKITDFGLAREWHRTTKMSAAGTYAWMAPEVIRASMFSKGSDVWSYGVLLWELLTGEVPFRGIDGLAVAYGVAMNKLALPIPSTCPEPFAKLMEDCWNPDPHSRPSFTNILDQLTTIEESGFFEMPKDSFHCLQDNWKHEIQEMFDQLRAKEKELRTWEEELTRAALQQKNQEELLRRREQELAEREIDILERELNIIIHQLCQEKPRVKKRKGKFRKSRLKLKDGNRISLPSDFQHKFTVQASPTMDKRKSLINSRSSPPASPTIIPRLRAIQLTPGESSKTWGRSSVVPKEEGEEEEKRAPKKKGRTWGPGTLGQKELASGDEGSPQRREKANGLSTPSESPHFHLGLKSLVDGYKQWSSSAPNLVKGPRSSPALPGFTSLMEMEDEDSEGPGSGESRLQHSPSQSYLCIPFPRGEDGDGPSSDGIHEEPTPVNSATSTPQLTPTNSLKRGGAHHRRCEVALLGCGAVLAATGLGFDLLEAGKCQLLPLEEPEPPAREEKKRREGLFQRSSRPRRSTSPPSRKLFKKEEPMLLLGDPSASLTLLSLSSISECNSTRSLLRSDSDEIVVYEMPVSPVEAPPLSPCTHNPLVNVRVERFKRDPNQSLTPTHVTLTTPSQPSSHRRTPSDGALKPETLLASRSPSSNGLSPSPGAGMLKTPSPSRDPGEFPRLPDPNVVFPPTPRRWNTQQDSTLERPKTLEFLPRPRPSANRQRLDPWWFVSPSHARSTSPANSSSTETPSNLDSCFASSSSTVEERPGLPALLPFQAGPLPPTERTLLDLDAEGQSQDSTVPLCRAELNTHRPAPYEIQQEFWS
Sequence of Leukocyte tyrosine kinase receptor (Homo sapiens) (P29376 whole entry): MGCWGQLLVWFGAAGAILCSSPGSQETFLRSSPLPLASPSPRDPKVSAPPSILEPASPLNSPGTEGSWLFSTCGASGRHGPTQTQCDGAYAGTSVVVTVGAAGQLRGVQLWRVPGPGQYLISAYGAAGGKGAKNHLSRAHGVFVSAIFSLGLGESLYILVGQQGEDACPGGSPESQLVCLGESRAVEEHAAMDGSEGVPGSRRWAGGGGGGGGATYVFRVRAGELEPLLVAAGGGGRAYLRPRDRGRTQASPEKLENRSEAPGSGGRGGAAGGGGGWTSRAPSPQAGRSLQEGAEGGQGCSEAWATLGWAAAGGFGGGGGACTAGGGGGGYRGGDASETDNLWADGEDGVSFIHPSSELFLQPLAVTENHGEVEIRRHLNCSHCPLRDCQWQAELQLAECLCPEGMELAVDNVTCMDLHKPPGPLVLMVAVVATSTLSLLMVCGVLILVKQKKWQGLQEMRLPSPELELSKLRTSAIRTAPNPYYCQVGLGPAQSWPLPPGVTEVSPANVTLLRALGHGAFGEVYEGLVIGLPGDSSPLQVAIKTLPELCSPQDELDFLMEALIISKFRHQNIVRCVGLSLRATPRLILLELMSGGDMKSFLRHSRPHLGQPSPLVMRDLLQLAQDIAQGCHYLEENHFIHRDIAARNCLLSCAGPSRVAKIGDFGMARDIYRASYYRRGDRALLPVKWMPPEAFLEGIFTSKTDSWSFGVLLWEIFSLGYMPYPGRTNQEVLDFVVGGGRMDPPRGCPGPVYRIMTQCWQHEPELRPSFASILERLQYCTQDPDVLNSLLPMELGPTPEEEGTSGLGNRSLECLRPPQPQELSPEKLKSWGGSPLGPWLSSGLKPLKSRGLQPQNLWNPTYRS
Sequence of Vascular endothelial growth factor receptor 2 (Homo sapiens) (P35968 whole entry): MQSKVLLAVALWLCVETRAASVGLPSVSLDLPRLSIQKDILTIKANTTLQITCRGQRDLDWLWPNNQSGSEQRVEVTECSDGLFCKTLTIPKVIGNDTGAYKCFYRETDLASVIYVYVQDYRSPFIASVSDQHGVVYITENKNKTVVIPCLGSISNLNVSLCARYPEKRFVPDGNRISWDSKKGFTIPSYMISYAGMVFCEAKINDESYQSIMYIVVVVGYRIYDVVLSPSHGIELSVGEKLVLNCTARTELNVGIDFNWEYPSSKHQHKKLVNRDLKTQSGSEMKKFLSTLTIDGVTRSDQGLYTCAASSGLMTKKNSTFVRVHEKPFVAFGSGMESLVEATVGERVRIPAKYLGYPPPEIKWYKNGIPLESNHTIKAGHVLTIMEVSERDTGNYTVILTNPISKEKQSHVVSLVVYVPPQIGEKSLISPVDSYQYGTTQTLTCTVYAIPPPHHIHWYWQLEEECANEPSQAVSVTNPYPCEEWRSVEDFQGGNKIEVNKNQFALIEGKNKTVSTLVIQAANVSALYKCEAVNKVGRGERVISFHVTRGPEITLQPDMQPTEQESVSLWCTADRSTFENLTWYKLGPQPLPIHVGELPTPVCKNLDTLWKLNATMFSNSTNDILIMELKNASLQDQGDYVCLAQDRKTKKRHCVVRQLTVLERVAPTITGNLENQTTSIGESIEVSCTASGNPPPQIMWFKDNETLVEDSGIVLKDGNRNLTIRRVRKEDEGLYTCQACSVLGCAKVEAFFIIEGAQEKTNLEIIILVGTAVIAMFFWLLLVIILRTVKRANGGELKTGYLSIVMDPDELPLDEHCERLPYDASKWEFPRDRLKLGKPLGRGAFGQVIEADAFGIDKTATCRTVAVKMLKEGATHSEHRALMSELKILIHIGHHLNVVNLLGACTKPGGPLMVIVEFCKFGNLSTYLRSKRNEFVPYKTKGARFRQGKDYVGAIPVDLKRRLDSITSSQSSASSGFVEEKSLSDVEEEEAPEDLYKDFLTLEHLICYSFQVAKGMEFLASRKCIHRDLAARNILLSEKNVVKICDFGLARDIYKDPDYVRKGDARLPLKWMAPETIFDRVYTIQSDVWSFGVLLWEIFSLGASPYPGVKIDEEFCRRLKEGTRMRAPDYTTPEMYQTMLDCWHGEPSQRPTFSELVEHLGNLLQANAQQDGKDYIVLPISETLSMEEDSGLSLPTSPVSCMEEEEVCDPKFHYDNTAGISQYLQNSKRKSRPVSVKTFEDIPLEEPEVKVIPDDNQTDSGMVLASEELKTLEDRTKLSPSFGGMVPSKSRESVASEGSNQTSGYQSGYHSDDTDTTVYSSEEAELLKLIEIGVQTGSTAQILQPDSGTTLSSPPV
Sequence of Calcium/calmodulin-dependent protein kinase type 1B (Homo sapiens) (Q6P2M8 whole entry): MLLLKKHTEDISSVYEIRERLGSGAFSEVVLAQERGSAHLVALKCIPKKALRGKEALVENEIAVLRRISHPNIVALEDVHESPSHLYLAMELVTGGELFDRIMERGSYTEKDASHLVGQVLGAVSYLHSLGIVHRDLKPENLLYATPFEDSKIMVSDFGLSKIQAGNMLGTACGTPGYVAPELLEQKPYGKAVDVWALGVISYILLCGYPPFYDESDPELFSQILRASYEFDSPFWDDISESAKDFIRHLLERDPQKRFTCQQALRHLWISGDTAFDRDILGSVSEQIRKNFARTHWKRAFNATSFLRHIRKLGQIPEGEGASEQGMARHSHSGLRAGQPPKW

inhibition [1] | inhibition [2] | inhibition [3] | inhibition [4] | inhibition [5] | inhibition [6] | inhibition [7] | inhibition [8] | inhibition [9] | inhibition [10] | inhibition [11] | inhibition [12] | inhibition [13] | SMILES
-3.85% | 2.17% | -8.46% | 3.09% | -3.65% | -2.33% | -4.62% | 2.28% | -0.44% | – | – | – | – | C[C@]1(O)C[C@@H](c2nc(-c3ccc4ccc(-c5ccccc5)nc4c3)c3c(N)nccn32)C1
– | – | – | – | – | – | – | – | – | 4.11% | 4.93% | -9.08% | -2.46% | C[C@@]1(C(=O)Nc2ccc(F)nc2)CCCN1c1nc(Nc2cc(C3CC3)n[nH]2)c2cccn2n1
